Assay [1] addresses Glyceraldehyde-3-phosphate dehydrogenase (Homo sapiens, UniProt P04406).
Assay [2] concerns the target T1, Bcl-2-related protein A1 (Mus musculus, UniProt Q07440).
T1 sequence (Q07440 whole entry): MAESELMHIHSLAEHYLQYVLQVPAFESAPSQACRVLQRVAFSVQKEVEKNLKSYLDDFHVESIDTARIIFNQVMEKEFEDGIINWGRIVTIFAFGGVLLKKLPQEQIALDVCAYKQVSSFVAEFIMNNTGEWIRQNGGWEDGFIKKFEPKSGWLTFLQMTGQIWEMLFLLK
Kind of assay: small-molecule antagonists of Bfl-1/BH3 interaction – biochemical, TR-FRET, mouse Bfl-1, confirmation (AID 621).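 Further: TR-FRET binding of GST-Bfl-1 to FITC-labelled Bid peptide via terbium antibody.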

In assay [3] the target is T1, Bcl-2-related protein A1. Nature of the assay: Bfl-1 binding inhibitors, SAR follow-up, biochemical, fluorescence polarization (AID 1070).
Assay [4] addresses Peroxisome proliferator-activated receptor gamma/Nuclear receptor coactivator 2 (Homo sapiens, UniProt P37231). It counts as functional.
The target in assay [5] is Peroxisome proliferator-activated receptor gamma/Nuclear receptor coactivator 1 (Homo sapiens, UniProt P37231). It counts as functional.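 Further: agonist potency as compounds enhance coactivator SRC-1 recruitment to PPARgamma.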
Sequence of Peroxisome proliferator-activated receptor gamma/Nuclear receptor coactivator 1 (P37231 whole entry): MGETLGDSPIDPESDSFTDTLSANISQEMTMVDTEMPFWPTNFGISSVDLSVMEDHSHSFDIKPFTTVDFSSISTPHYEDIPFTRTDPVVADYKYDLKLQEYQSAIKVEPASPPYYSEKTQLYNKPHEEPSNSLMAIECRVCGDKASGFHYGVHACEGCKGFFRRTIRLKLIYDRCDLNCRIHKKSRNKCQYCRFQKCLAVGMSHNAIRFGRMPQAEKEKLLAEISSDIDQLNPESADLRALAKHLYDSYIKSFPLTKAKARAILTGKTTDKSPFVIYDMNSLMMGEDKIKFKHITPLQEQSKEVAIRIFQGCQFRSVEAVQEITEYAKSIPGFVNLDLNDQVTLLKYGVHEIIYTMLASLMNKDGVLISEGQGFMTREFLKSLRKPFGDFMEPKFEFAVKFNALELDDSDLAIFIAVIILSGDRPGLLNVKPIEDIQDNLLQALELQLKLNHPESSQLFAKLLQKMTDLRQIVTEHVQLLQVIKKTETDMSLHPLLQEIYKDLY
Sequence of Peroxisome proliferator-activated receptor gamma/Nuclear receptor coactivator 1 (Q15788 whole entry, further chain): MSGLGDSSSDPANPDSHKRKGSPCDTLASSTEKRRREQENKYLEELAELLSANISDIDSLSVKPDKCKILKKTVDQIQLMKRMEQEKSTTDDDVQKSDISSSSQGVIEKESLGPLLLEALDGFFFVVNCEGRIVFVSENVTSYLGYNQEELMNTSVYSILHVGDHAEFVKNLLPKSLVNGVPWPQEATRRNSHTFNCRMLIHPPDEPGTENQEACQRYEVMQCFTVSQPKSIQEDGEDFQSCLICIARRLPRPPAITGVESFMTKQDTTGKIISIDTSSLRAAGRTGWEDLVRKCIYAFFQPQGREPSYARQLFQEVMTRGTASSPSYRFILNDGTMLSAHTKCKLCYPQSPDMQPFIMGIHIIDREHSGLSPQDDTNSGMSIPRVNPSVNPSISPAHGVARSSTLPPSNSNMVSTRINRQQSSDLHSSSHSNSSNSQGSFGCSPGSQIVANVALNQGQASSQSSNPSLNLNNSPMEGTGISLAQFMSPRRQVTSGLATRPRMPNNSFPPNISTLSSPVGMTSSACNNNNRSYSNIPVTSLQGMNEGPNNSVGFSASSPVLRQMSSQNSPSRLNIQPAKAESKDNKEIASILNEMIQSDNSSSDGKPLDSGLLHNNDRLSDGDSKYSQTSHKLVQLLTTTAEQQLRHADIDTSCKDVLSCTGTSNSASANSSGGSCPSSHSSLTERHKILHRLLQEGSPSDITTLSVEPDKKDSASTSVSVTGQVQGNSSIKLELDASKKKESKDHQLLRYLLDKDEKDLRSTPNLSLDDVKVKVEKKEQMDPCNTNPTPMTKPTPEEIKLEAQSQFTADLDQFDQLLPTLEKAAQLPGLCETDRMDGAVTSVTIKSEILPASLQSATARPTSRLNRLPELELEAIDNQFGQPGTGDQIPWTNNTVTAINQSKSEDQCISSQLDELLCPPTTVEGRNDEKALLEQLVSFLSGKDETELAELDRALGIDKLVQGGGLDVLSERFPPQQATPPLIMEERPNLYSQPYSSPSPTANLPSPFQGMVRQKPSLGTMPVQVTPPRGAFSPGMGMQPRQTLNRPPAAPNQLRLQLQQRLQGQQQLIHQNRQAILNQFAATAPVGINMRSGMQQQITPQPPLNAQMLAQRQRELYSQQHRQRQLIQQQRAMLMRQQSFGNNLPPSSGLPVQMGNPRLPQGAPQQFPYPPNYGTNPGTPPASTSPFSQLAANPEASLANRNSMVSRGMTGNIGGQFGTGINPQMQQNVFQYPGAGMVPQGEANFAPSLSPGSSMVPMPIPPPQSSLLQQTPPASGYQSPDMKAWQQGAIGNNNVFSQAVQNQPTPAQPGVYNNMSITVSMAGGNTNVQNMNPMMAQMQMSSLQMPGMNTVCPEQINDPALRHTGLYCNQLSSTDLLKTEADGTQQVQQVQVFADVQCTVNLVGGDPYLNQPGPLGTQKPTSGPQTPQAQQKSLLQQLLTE
In assay [6] the target is Peroxisome proliferator-activated receptor gamma/Nuclear receptor coactivator 3 (Homo sapiens, UniProt P37231). Format: functional.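 Further: agonist potency for raising coactivator recruitment to the receptor.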
Assay [7] concerns the target T2, Heat shock factor protein 1 (Mus musculus, UniProt P38532).
T2 sequence (P38532 whole entry): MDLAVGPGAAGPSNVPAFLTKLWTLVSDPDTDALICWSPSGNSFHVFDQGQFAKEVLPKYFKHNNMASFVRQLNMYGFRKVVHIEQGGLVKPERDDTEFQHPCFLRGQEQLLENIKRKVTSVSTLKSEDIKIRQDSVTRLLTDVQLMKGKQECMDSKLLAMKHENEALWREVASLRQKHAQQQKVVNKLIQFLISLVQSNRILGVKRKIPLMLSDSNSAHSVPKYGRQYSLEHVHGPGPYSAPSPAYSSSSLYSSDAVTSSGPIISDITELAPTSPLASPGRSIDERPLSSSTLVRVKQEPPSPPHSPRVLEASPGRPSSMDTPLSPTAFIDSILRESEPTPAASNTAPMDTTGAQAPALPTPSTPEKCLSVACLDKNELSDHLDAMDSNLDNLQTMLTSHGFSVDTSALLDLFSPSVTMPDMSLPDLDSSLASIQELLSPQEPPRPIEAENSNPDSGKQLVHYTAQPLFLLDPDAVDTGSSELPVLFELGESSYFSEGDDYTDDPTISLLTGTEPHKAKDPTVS
Kind of assay: enhancement of HSF1-driven luciferase signal – cell-based, NIH3T3, luminescence, dose retest, confirmation (AID 435004).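 Further: stress induced by proteasome inhibitor MG132 added 30 min after compound; luciferase reporter driven by HSF1 response element in NIH3T3 cells; actives raise luminescence as potentiators of the MG132 stress response.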 Format: functional.

The target of another assay is Cytochrome P450 2C19 (Homo sapiens, UniProt P33261). Nature of the assay: qHTS Assay for Inhibitors and Substrates of Cytochrome P450 2C19. [Related pubchem assays: 410 ]. Format: ADME. The conditions noted are these: read-out: Potency.
Sequence of Cytochrome P450 2C19 (P33261 whole entry): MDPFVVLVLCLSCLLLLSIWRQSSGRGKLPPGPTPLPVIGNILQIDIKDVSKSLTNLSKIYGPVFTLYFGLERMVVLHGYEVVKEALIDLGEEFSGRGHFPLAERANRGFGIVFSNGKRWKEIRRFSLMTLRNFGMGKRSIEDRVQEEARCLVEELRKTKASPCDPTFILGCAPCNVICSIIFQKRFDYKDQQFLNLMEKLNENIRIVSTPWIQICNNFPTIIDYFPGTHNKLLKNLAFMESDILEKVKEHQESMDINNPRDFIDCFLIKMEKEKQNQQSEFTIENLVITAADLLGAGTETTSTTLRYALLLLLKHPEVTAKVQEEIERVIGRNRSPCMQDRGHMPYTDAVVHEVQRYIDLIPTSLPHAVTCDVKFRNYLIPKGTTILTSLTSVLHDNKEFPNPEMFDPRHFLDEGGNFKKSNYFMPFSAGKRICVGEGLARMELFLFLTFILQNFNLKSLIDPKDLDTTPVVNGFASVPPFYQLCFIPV
The next assay addresses Cytochrome P450 2C9 (Homo sapiens, UniProt P11712). Conditions: Potency.
A short description of assay [8]: NIH-3T3 fibroblast cytotoxicity, dose response, cytotoxicity control, cell-based, fluorescence, Alamar Blue, secondary assay (AID 2327).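 Further: NIH-3T3 mouse fibroblasts cultured with fluconazole at 8 µg/mL.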 Format: functional.
Assay [9] can be described thus: fluconazole-exposed Candida albicans growth modulators – fluorescence, retest, confirmation (AID 2467). It counts as functional, cell-based.
The nature of assay [10]: antiviral protection against BTV-induced cell death – arbovirus, BSR cells, confirmation (AID 1250).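 Further: protection from viral cytopathic effect measured as cell viability by ATP luminescence.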 Format: functional.
Assay [11] deals with T3, Alkaline phosphatase, tissue-nonspecific isozyme (Homo sapiens, UniProt P05186).
T3 sequence (P05186 whole entry): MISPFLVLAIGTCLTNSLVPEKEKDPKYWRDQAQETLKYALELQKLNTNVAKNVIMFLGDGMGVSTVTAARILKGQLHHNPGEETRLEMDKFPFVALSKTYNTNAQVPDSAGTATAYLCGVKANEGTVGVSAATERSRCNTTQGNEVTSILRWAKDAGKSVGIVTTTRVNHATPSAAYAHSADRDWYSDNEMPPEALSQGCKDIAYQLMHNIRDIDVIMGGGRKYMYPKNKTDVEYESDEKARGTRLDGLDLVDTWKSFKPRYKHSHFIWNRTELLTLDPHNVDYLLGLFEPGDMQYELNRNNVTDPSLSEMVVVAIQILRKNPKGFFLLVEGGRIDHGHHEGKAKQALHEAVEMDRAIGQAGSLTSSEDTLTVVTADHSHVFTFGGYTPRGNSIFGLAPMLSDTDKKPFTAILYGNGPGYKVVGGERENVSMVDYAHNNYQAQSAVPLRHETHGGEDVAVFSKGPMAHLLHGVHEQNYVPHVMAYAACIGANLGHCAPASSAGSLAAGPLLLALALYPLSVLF

The target of assay [12] is T4, Short transient receptor potential channel 4 (Mus musculus, UniProt Q9QUQ5).
T4 sequence (Q9QUQ5 whole entry): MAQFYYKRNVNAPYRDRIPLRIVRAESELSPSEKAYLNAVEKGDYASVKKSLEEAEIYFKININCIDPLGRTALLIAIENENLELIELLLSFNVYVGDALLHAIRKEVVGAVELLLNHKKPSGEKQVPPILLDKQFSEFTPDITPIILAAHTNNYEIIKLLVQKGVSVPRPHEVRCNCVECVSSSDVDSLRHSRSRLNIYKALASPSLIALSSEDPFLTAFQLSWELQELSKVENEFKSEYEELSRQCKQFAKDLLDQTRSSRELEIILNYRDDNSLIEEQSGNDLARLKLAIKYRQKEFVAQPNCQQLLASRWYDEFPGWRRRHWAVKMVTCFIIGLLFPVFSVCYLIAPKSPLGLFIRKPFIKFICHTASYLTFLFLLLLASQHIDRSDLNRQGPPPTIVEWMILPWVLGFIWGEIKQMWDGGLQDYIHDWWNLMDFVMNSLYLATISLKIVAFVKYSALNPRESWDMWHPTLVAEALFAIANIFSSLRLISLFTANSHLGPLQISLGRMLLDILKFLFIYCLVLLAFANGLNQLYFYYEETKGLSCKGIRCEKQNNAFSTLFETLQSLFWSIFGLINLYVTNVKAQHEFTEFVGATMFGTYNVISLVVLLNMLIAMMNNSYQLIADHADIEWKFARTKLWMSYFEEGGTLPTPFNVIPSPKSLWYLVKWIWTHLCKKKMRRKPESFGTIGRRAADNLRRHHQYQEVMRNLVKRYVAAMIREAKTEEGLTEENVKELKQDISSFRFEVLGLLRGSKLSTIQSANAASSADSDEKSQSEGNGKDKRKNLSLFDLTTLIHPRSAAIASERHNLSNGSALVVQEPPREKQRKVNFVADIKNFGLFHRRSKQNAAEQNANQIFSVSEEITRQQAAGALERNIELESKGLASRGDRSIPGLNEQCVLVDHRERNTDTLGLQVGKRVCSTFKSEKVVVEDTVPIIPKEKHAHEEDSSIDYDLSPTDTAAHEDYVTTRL
Nature of the assay: calcium entry via TRPC4 opening agents – cell-based, HEK293 TRPC4/mu-opioid, Fluo-4 calcium, dose response (AID 434937). It counts as functional.

The target in assay [13] is Sphingosine 1-phosphate receptor 2 (Homo sapiens, UniProt O95136). Nature of the assay: Dose Response Cell Based Assay for Agonists of the S1P2 Receptor of Purchased Analogues. [Related pubchem assays: 729, 843, 854, 736 ]. Format: functional.

Calls of active or inactive are those of the source.

Sequence of Peroxisome proliferator-activated receptor gamma/Nuclear receptor coactivator 2 (P37231 whole entry): as the sequence (P37231 whole entry) above
Sequence of Peroxisome proliferator-activated receptor gamma/Nuclear receptor coactivator 2 (Q15596 whole entry, further chain): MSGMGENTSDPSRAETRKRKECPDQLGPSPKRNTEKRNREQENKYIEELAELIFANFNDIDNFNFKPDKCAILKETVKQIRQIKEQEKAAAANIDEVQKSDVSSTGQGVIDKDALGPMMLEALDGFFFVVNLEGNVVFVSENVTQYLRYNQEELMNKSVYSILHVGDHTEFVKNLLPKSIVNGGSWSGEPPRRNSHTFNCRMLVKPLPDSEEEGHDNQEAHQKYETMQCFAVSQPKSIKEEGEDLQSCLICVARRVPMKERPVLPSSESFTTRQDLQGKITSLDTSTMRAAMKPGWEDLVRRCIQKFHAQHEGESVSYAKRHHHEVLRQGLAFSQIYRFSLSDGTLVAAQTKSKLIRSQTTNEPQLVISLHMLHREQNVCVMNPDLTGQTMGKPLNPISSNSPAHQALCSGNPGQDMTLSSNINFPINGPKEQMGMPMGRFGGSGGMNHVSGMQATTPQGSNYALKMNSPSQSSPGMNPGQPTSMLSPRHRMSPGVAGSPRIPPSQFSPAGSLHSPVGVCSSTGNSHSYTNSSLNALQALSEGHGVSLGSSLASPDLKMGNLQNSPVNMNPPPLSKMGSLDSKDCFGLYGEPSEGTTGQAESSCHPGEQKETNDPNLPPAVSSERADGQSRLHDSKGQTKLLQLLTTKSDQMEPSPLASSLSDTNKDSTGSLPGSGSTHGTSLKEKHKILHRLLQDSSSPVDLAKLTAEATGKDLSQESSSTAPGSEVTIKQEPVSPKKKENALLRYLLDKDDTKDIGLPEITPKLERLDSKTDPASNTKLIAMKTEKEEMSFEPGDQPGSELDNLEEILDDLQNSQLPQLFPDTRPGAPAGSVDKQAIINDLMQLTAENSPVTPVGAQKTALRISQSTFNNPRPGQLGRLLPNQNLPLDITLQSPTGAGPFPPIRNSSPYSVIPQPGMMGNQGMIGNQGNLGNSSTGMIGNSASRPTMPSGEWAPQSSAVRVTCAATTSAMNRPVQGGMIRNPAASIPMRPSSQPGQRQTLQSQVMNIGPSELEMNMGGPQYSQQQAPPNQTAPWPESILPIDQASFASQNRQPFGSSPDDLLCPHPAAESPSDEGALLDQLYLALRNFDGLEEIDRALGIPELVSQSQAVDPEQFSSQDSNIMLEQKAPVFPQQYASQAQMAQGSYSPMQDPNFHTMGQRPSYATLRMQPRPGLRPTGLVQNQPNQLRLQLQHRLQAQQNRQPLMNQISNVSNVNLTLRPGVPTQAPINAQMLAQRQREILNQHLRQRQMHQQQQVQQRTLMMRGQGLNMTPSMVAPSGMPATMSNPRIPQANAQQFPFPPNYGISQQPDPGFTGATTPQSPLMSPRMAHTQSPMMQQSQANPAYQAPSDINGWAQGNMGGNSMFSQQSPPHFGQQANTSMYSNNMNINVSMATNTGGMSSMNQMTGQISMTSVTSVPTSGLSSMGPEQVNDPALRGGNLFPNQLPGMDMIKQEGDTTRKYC
Sequence of Glyceraldehyde-3-phosphate dehydrogenase (P04406 whole entry): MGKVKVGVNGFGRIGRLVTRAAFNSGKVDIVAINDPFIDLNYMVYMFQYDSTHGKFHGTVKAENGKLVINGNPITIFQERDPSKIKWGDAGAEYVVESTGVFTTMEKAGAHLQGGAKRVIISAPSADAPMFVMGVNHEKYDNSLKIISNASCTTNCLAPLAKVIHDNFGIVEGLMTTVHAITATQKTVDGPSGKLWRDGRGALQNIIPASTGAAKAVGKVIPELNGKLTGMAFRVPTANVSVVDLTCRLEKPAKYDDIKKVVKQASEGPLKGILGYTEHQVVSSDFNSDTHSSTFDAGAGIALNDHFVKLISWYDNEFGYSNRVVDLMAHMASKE

In the case of `CN1CCN(C2=C(Cl)C(=O)N(c3cccc([N+](=O)[O-])c3)C2=O)CC1`, the IC50 was > 100 µM (not active) in assay [1], 3.94 µM (active) on Bcl-2-related protein A1 [2] and 6.79 µM (active) at Bcl-2-related protein A1 [3].

Take `Cc1cccc(N2C(=O)C(Cl)=C(N3CCN(CCOCCO)CC3)C2=O)c1`: the IC50 is > 100 µM (not active) in assay [1], 6.43 µM (active) at Bcl-2-related protein A1 [2] and 4.46 µM (active) on Bcl-2-related protein A1 [3].

For the compound `O=C(COC(=O)c1ccccc1C(=O)c1ccccc1)NCCc1ccccc1`, the EC50 in assay [4] was > 79.4 µM (not active); in assay [5], > 79.4 µM (not active); in assay [6] it was > 79.4 µM (not active); in assay [7], > 260 µM (inactive).

Turning to `CC(C)[C@@H](CC(=O)N[C@@H]1CCCC[C@H]1C(=O)N[C@H](CC(=O)N[C@@H](CCC(=O)O)CC(=O)O)Cc1ccccc1)NC(=O)C[C@H](CO)NC(=O)[C@@H]1CCCC[C@H]1N`, the AC50 on Cytochrome P450 2C19 and on Cytochrome P450 2C9 was 39.8 µM (inconclusive) each time.

Regarding `O=C(CCCn1c(=O)[nH]c2ccc(Br)cc2c1=O)NCc1ccc(Cl)cc1`, the EC50 in assay [4], in assay [5] and in assay [6] was > 79.4 µM (not active) each time.

Regarding `Cc1ccc2nc(-c3ccccc3Cl)cc(C(=O)Nc3cc(C)on3)c2c1`, the figures for the EC50 in assay [8] and in assay [9] were > 160 µM (inactive) and 3.33 µM (active), respectively. Moreover, in assay [10], the IC50 was 45.5 µM (active).

On to `COc1ccc(-n2cc(CNCCc3nc(C)c[nH]3)c(-c3ccccc3Cl)n2)cc1`, for which the EC50 in assay [11] was 66.1 µM (not active); in assay [12], 5.96 µM (active).

With `Cc1cc(C(=O)COC(=O)CN2C(=O)NC(C)(C)C2=O)c(C)n1Cc1ccccc1`, the EC50 in [13] is > 30 µM (not active).

The values are drawn from ChEMBL document CHEMBL1201862, “PubChem BioAssay data set” (2004).
